In ChEMBL document CHEMBL1125631, “Adenosine deaminase inhibitors: synthesis and structure-activity relationships of imidazole analogues of erythro-9-(2-hydroxy-3-nonyl)adenine” (J Med Chem, 1991):

biological target: T1, Adenosine deaminase (Bos taurus, UniProt P56658); assay: Inhibition of calf intestinal adenosine deaminase
T1 sequence (P56658 whole entry): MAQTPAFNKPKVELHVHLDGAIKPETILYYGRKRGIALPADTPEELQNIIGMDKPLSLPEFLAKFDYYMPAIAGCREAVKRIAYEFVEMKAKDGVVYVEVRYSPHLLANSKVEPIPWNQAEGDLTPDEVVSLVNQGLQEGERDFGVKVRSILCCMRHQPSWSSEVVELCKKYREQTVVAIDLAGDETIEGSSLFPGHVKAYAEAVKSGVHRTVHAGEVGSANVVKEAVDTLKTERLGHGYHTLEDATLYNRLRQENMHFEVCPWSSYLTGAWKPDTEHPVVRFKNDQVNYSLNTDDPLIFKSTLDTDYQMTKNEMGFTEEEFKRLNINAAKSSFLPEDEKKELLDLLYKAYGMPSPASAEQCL

Ki [µM]	Structure (SMILES)
0.0353	CCCCCCC(C(C)O)n1cnc(C(N)=O)c1 (stereo unspecified)
1.04	CCCCCCC(C(C)O)n1cnc(C(N)=O)c1N (stereo unspecified)
16	CCCCCCC(C(C)O)n1cnc(C(=O)NCCC)c1 (stereo unspecified)
0.368	CCCCCCC(C(C)O)n1cnc(C(=O)NC)c1 (stereo unspecified)
17.9	CCCCCCC(C(C)O)n1cnc(C(=O)NCC)c1 (stereo unspecified)
32.1	CCCCCCC(C(C)O)n1cnc(C(=O)NC[C@@H](C)O)c1 (stereo partly specified)
2.52	CCCCCCC(C(C)O)n1cnc(CO)c1 (stereo unspecified)
6.9	CCCCCCC(C(C)O)n1cnc(C(=O)NC[C@H](C)O)c1 (stereo partly specified)
10.6	CCCCCCC(C(C)O)n1cnc(C(=N)N)c1N (stereo unspecified)
86	CCCCCCC(C(C)O)n1cnc(C(=O)NCc2ccccc2)c1 (stereo unspecified)
347	CCCCCCC(C(C)O)n1cnc(C(=O)OCC)c1N (stereo unspecified)
36.3	CCCCCCC(C(C)O)n1cnc(C(=O)N(C)C)c1 (stereo unspecified)
41.1	CCCCCCC(C(C)O)n1cnc(C(=O)NC2CCCC2)c1 (stereo unspecified)
2.56	CCCCCCC(C(C)O)n1cnc(C(=N)N)c1 (stereo unspecified)
39	CCCCCCC(C(C)O)n1cnc(C(=O)O)c1 (stereo unspecified)
4.02	CCCCCCC(C(C)O)n1cnc(CN)c1 (stereo unspecified)
66	CCCCCCC(C(C)O)n1cnc(C(=O)OCC)c1 (stereo unspecified)
110	Nc1cccc2c1ncn2C1O[C@H](CO)[C@@H](O)[C@H]1O (stereo partly specified)

Structure (SMILES)	Ki [µM]
CCCCCCC(C(C)O)n1cnc(C(N)=O)c1Cl (stereo unspecified)	0.126
CCCCCCC(C(C)O)n1cnc(C(=O)NCCO)c1 (stereo unspecified)	0.93
CCCCCCC(C(C)O)n1cnc(C(=N)S)c1 (stereo unspecified)	0.0471

biological target: T1, Adenosine deaminase; assay: Inhibition constant against calf intestinal adenosine deaminase; Not active

Ki	Structure (SMILES)
Not Active	N=C(N)c1cn(C2O[C@H](CO)[C@@H](O)[C@H]2O)cn1 (stereo partly specified)
Not Active	N=C(N)c1ncn(C2O[C@H](CO)[C@@H](O)[C@H]2O)c1N (stereo partly specified)
Not Active	Nc1ccnc2c1ccn2C1O[C@H](CO)[C@@H](O)[C@H]1O (stereo partly specified)

Structure (SMILES)	Ki
NC(=O)c1ccn(C2O[C@H](CO)[C@@H](O)[C@H]2O)c1 (stereo partly specified)	Not Active
Nc1ncnc2c1ccn2[C@@H]1O[C@H](CO)[C@@H](O)[C@H]1O [TUBERCIDIN]	Not Active
